Reference: patent US8304529B2, “Dinucleotide MRNA cap analogs” (Life Technologies Corporation, priority 2006, dated 2012)

Columns and labels:
HeLa cells = assay: Luciferase protein expression after transfection of capped luciferase RNA into HeLa cells; assay type: cell-based; settings: for protein expression compared with mCAP: capped luciferase RNAs with poly(A) tail, different time points after transfection, higher than mCAP
Description: Structures were confirmed by ^1H NMR and ^31P NMR. Transcripts produced with T7 RNA polymerases using “anti-reverse” cap analogs (ARCAs) were of the predicted length and indistinguishable in size and homogeneity from those produced with m^7GpppG. Transfection assays were performed by using standard cap analog-capped and ARCA-capped luciferase in in vitro transcribed RNA with HeLa cells.

[1] = tested on: phage RNA polymerase such as T7, T3 or SP6; settings: cited from earlier work

Compound | protein expression compared with mCAP (HeLa cells) | attachment of cap to RNA in the reverse orientation ([1]; NTPs and cap RNA present in comparable concentrations) | capped RNA in transcription product ([1]; m7GpppG to GTP 4:1, mMESSAGE mMACHINE kit, rest 20% uncapped) [%] | translation of capped transcripts in transfected cells (HeLa cells; compared with mCAP, double methylated and ARCA capped luciferase RNAs)
CO[C@H]1[C@@H](O)[C@H](n2c[n+](C)c3c(=O)[nH]c(N)nc32)O[C@@H]1COP(=O)(O)OP(=O)(O)OP(=O)(O)OC[C@H]1O[C@@H](n2cnc3c(=O)[nH]c(N)nc32)[C@H](O)[C@@H]1O [ARCA, m2^7,3′OG[5′]ppp[5′]G] | 3 fold | – | – | –
C[n+]1cn([C@@H]2O[C@H](COP(=O)(O)OP(=O)(O)OP(=O)(O)OC[C@H]3O[C@@H](n4c[n+](C)c5c(=O)[nH]c(N)nc54)[C@H](O)[C@@H]3O)[C@@H](O)[C@H]2O)c2nc(N)[nH]c(=O)c21 [double methylated cap, m^7 (5′)Gppp(5′)m^7G] | one fold higher | – | – | –
Cn1c[n+]([C@@H]2O[C@H](COP(=O)(O)OP(=O)(O)OP(=O)(O)OC[C@H]3O[C@@H](n4cnc5c(=O)[nH]c(N)nc54)[C@H](O)[C@@H]3O)[C@@H](O)[C@H]2O)c2nc(N)[nH]c(=O)c21 [mCAP, m^7G(5′)ppp(5′)G] | – | around 50% | 80 | –
COC1C(COP(=O)([O-])OP(=O)(O)OP(=O)([O-])OCC2OC(n3c[n+](C)c4c(=O)[nH]c(N)nc43)C(O)C2O)OC(n2c[n+](C)c3c(=O)[nH]c(N)nc32)C1O (stereo not drawn) [triple methylated cap, m2^7,3′OG[5′]ppp[5′]m^7G] | 4 fold | – | – | more highly translated
